From BigSolDB 2.1

Oc1ccc(OCc2ccccc2)cc1
solubility (mole fraction)
Conditions	283.15 K	288.15 K	293.15 K	298.15 K	303.15 K	308.15 K	313.15 K
in 1,4-dioxane	–	0.0903	0.131	0.19	0.258	0.342	0.435
in acetonitrile	0.036	0.0447	0.0546	0.0669	0.0821	0.101	0.125
in cyclohexane	0.000542	0.000933	0.00156	0.00261	0.00396	0.0058	0.00802
in ethanol	0.0319	0.0396	0.0484	0.0595	0.0735	0.0905	0.111
in ethyl acetate	0.0773	0.129	0.201	0.293	0.399	0.519	0.632
in isopropanol	0.0317	0.0383	0.0476	0.0585	0.0736	0.0921	0.116
in methanol	0.0381	0.0476	0.0593	0.0739	0.0908	0.111	0.136
in n-butanol	0.0227	0.0282	0.0346	0.0434	0.0543	0.0666	0.0835
in n-hexane	0.000327	0.000453	0.000749	0.00108	0.00161	0.00226	0.00313
in n-octanol	0.00719	0.0101	0.0136	0.0171	0.0224	0.0289	0.0355
in n-propanol	0.0287	0.0352	0.0428	0.0521	0.0642	0.0794	0.0994
in water	5e-06	7e-06	9e-06	1.3e-05	1.7e-05	2.3e-05	3e-05
